According to PubChem BioAssay AID2765 (Broad Institute, 2010):
Calls of active or inactive are those of the source.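 How the source made its calls: active means half-maximal concentration for the rise in caspase light signal at or below ten times the top tested dose; inconclusive means flat fit between 30% and 70% activity, or unreliable curve fit; inactive means the rest.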

Tested on: MEF A1-2A-BIM cells, caspase 3/7 luminescence, 3 h
Assay: inducers of caspase signal in A1-dependent MEFs – cell-based, luminescence, retest, A1 inhibitor project, dose response (AID 2765)

| Structure (SMILES) | EC50 |
| --- | --- |
| Cc1ccsc1CNC1CCCCC1 | > 35 µM (inactive) |
| O=C(Nc1ccc(Br)cc1C(=O)O)c1ccc2c(c1)C(=O)N(Cc1ccccc1)C2=O | > 35 µM (inactive) |
| CC1(C)c2cc(O)ccc2OC1N1CCOCC1 (stereo unspecified) | > 35 µM (inactive) |
| CN(C)CCCN(C(=O)c1cc2cc([N+](=O)[O-])ccc2s1)c1nc2cc3c(cc2s1)OCCO3 | > 35 µM (inactive) |
| Oc1ccc(C[C@H]2CNCCN2CCCCC2CCCCC2)cc1 | > 35 µM (inactive) |
| CCOC(=O)C(NC(=O)c1ccc(OC)cc1)(N1CCCC1=O)C(F)(F)F (stereo unspecified) | > 35 µM (inactive) |
| COc1cc(NC(=O)c2ccccc2)c(OC)cc1NC(=O)Cc1ccc(Br)cc1 | > 35 µM (inactive) |
| CC(Sc1nc(-c2ccccc2)cc(C(F)(F)F)n1)C(=O)N1CCCCC1 (stereo unspecified) | > 35 µM (inactive) |
| CCOC(=O)[C@H]1[C@H]2COc3cc(OC)ccc3[C@@H]2N2C(=O)c3ccc(C)cc3NC(=O)[C@@]12C | > 35 µM (inactive) |
| CCCOC(=O)c1[nH]c2c(c1C)C(=O)CC(c1cccs1)C2 (stereo unspecified) | > 35 µM (inactive) |
| CC12CCCCC1NS(=O)(=O)OC2 (stereo unspecified) | > 35 µM (inactive) |
| CC(C)C[C@H](NC(=O)N1CCn2c1nc1ccccc12)C(=O)NCc1ccccc1 | > 35 µM (inactive) |
| CN1CCc2c(sc3c2C(=O)NC(c2ccccn2)N3)C1 (stereo unspecified) | > 35 µM (inactive) |
| O=C(Nc1ccccc1N1CCCC1)C1CCN(S(=O)(=O)c2ccc(F)cc2)CC1 | > 35 µM (inactive) |
| N#C/C(=C/c1ccc(N2CCOCC2)o1)c1ccc(Br)cc1 | > 35 µM (inactive) |
| Cc1nc(NN)c2c3c(sc2n1)COC(C)(C)C3 | > 35 µM (inactive) |
| Cc1ccc(CCC(=O)Nc2ccc(Br)cc2)o1 | > 35 µM (inactive) |
| CCS(=O)(=O)c1ncc(Cl)c(C(=O)Nc2ccc(S(=O)(=O)N3CCC(C)CC3)cc2)n1 | > 35 µM (inactive) |
| COc1ccc(OC)c(/C=C/C(=O)N(C)CC(=O)Nc2cc(C)ccc2C)c1 | > 35 µM (inactive) |
| CCCNC(=O)C(Cc1ccccc1F)NC(=O)c1ccccn1 (stereo unspecified) | > 35 µM (inactive) |
| COc1cccc(-n2nnnc2S(C)(=O)=O)c1 | > 35 µM (inactive) |
| COc1cccc(CN(CC(=O)NC2CCCC2)C(=O)c2csnn2)c1 | > 35 µM (inactive) |
| Cc1c(C(=O)c2ccccc2C(=O)O)sc2ccccc12 | > 35 µM (inactive) |
| C=C1/C=C(\C)[C@](C)(O)C[C@H](O)CC(=O)[C@H](O)[C@@H](O)[C@H](C)C[C@H](C)OC(=O)/C(C)=C/CC/C=C/[C@@H]2O[C@H]2C[C@H](C)C1 | > 35 µM (inactive) |

| Structure (SMILES) | EC50 |
| --- | --- |
| OC(COc1ccc2ccccc2c1Br)Cn1ccnc1 (stereo unspecified) | > 35 µM (inactive) |
| NC(=O)c1ccc[n+](CC(=O)NCc2ccc(Cl)cc2)c1 | > 35 µM (inactive) |
| COc1cc(NS(=O)(=O)c2cc(C(=O)NCCc3ccccn3)ccc2OC)cc(OC)c1 | > 35 µM (inactive) |
| O=C(/C=C/N1CCN(Cc2ccccc2)CC1)C(F)(F)F | > 35 µM (inactive) |
| Cc1coc(NC(=O)CSc2nc(-c3ccc(Cl)cc3)cc(C(F)(F)F)c2C#N)n1 | > 35 µM (inactive) |
| O=C(NCCOC(=O)c1ccc(Cl)c(S(=O)(=O)N2CCCCC2)c1)c1ccncc1 | > 35 µM (inactive) |
| CCOc1ccccc1NC(=O)c1nc(S(=O)(=O)Cc2cccc(C)c2)ncc1Cl | > 35 µM (inactive) |
| CCn1c(SCC(=O)c2ccccc2)nnc1-c1cc2cc(Br)ccc2o1 | > 35 µM (inactive) |
| CCOC(=O)/C(=C\c1ccc([N+](=O)[O-])cc1)C(=O)c1cc(C(C)=O)c(Nc2ccccc2)s1 | 1.9 µM |
| Cc1nc(-c2ccc(F)cc2)c(CC(=O)N(C)CC(=O)Nc2ccccc2Cl)s1 | > 35 µM (inactive) |
| Cc1cc(C)cc(COn2ccnc2)c1 | > 35 µM (inactive) |
| O=C(CSc1nc2ncc(Br)cc2[nH]1)c1ccc([N+](=O)[O-])cc1 | > 35 µM (inactive) |
| O=C1NC(=O)C(c2cn(-c3ccccc3)nc2-c2ccc(F)cc2)N1 (stereo unspecified) | > 35 µM (inactive) |
| Clc1ccc(C2=CC(c3ccco3)n3ncnc3N2)cc1 (stereo unspecified) | > 35 µM (inactive) |
| Cc1cccc(C)c1OCc1nnc(SCC(=O)Nc2nccs2)n1-c1ccccc1 | > 35 µM (inactive) |
| O=S1(=O)CCOC[C@H](CC2CCCCC2)N1Cc1cccc(Cl)c1 | > 35 µM (inactive) |
| CC(=O)N1CCN(C(=S)c2ccc([N+](=O)[O-])cc2)CC1 | > 35 µM (inactive) |
| CN(C(=O)c1ccc(NC(=O)C2CCCN(C(=O)OC(C)(C)C)C2)cc1)C1CC1 (stereo unspecified) | > 35 µM (inactive) |
| COc1ccc(CC(=O)Nc2ccc3c(c2)CCC3)cc1S(=O)(=O)N1CCOCC1 | > 35 µM (inactive) |
| CCCc1nc2cc3c(cc2[nH]1)n(C)c(=O)n3C | > 35 µM (inactive) |
| Cc1cc(Br)c2c(c1)C1(OCCO1)C(=O)N2 | > 35 µM (inactive) |
| CCc1cc(C(=O)OCC(=O)N2CCC(c3ccccc3)=N2)sc1C | > 35 µM (inactive) |
| CC1Cc2cc(/C(O)=C3/C(=O)C(=O)N(Cc4cccnc4)C3c3cccc(O)c3)ccc2O1 (stereo unspecified) | > 35 µM (inactive) |
| Cc1cc(N2C(=O)CCC2=O)n(-c2ccccc2)n1 | > 35 µM (inactive) |

| Structure (SMILES) | EC50 |
| --- | --- |
| Cc1nc2sc(C(=O)O)c(N)c2c2c1COC(C)(C)C2 | > 35 µM (inactive) |
| O=C(N/N=C/c1ccc(N2CCCCC2)o1)c1ccccc1[N+](=O)[O-] | > 35 µM (inactive) |
| Cc1c(O)c(=O)ccn1Cc1ccccc1 | > 35 µM (inactive) |
| COc1ccc(NC(=O)C(NC(C)=O)C(=O)NCc2ccccc2Cl)cc1 (stereo unspecified) | > 35 µM (inactive) |
| CN1C(C(=O)Nc2cccc(O)c2)=CC(c2ccco2)=NS1(=O)=O | > 35 µM (inactive) |
| CCN1CCN(c2nc3ccccc3nc2NS(=O)(=O)c2ccc(NC(C)=O)cc2)CC1 | > 35 µM (inactive) |
| FC(F)(F)c1ccc(Cl)c(NC2=NCCCCC2)c1 | > 35 µM (inactive) |
| c1ccc(Cc2nn3c(Cn4nnc5ccccc54)nnc3s2)cc1 | > 35 µM (inactive) |
| CC(C)(C)C#CC(CCc1ccccc1)OS(N)(=O)=O (stereo unspecified) | > 35 µM (inactive) |
| COc1ccc(NC(=O)c2ccco2)c(NC(=O)c2ccc([N+](=O)[O-])cc2)c1 | > 35 µM (inactive) |
| CCOc1cc(/C=N/N=C(\N)c2nonc2N)cc(Br)c1OCc1cccc2ccccc12 | 28 µM |
| CN1CCN(c2nccc3c2ncn3C)CC1 | > 35 µM (inactive) |
| CCOC(=O)Nc1nc(-c2ccccc2)c(C(=O)c2ccccc2)s1 | > 35 µM (inactive) |
| C=CCOc1c(Br)cc(CNc2ccc3[nH]c(=O)[nH]c3c2)cc1OCC | > 35 µM (inactive) |
| CCOc1nc(NCCO)nc(NCCC2=CCCCC2)n1 | > 35 µM (inactive) |
| CCOC(=O)CS(=O)(=O)c1nc(-c2ccccc2)cc(C(F)(F)F)n1 | > 35 µM (inactive) |
| COc1ccc2[nH]c(=O)c(-c3nnn(-c4ccccc4)n3)cc2c1 | > 35 µM (inactive) |
| O=C(NCNC(=O)NC1C(=O)NC(=O)N1CO)NC1C(=O)NC(=O)N1CO (stereo unspecified) | > 35 µM (inactive) |
| Cc1cc(Cl)ccc1OCC(=O)OCC(=O)c1c(N)n(C)c(=O)n(C)c1=O | > 35 µM (inactive) |
| CC(C)CCN1NC2(CCCC(C)C2)NC1=S (stereo unspecified) | > 35 µM (inactive) |
| O=C(N/N=C/c1ccco1)c1cc(-c2cccc(Br)c2)nc2ccccc12 | > 35 µM (inactive) |
| O=C(Nc1ccccc1N1CCCCC1)c1ccc(Cl)cc1 | > 35 µM (inactive) |
| CC1Cc2ccccc2N1C(=O)C1CCN(S(=O)(=O)Cc2ccccc2)CC1 (stereo unspecified) | > 35 µM (inactive) |
| Cc1c(C(=O)NCCN2C(=O)S/C(=C\c3cccs3)C2=O)cccc1[N+](=O)[O-] | > 35 µM (inactive) |

| Structure (SMILES) | EC50 |
| --- | --- |
| COc1ccc(-n2ncc3c2CC(C)(C)CC3NC(=O)Cc2nonc2C)cc1 (stereo unspecified) | > 35 µM (inactive) |
| COc1ccc(C2(C(=O)NCCCN(C)C)CCOCC2)cc1 | > 35 µM (inactive) |
| CC(=O)c1ccc(N2CCN(S(=O)(=O)c3c(C(=O)N4CCCC4)c(C)n(C)c3C)CC2)cc1 | > 35 µM (inactive) |
| CCCN1C(=O)C(=O)c2cc(C)ccc21 | > 35 µM (inactive) |
| NS(=O)(=O)c1ccc(NC(=O)CN2CCc3ccccc32)cc1 | > 35 µM (inactive) |
| O=C(CSc1ncccc1C(=O)O)NC1CCCCC1 | > 35 µM (inactive) |
| Cc1ccc(C(=O)N/C(=C\c2sccc2C)C(=O)NCCCN2CCOCC2)cc1 | > 35 µM (inactive) |
| COc1ccc(S(=O)(=O)N2CCCCC2C)cc1 (stereo unspecified) | > 35 µM (inactive) |
| Cc1ccccc1Nc1nc(-c2sc(NC(=O)c3cccc(Cl)c3)nc2C)cs1 | > 35 µM (inactive) |
| COC(=O)c1c(NC(=O)C2CC(C)=C(C)CC2C(=O)O)sc2c1CCCCC2 (stereo unspecified) | > 35 µM (inactive) |
| Cc1ccc(-n2nc3c(=O)n(CC(=O)NCCC4=CCCCC4)nc(C)c3c2C)cc1 | > 35 µM (inactive) |
| Cc1ccc(NC(=O)CCN2CC(C)OC(C)C2)cc1C (stereo unspecified) | > 35 µM (inactive) |
| O=C(O)COc1ccccc1/C=C1\C(=O)Nc2ccc(Br)cc21 | > 35 µM (inactive) |
| CC(C(=O)N(C)c1ccccc1)N1CCN(C(=O)c2ccccc2)CC1 (stereo unspecified) | > 35 µM (inactive) |
| COc1ccc2[nH]c3c(=O)n(/N=C/[C@H]4C(C)C=C(C)CC4C)c(=O)[nH]c3c2c1 (stereo partly specified) | 16 µM |
| O=C(NC1CCCC1)c1cccc2c1C(=O)c1ccc(/C=C/c3ccccc3)cc1S2(=O)=O | 10.6 µM |
| CSc1ccc(C(c2c(C)[nH][nH]c2=O)c2c(C)[nH][nH]c2=O)cc1 | > 35 µM (inactive) |
| COc1ccc(CC(=O)NCCN2CCOCC2)cc1 | > 35 µM (inactive) |
| N#Cc1ccc(S(=O)(=O)N2CCC(N3CCCCC3)CC2)cc1 | > 35 µM (inactive) |
| CC(=O)OC(C)(C)/C=C/C(=O)[C@](C)(O)C1[C@H](O)C[C@@]2(C)C3CC=C4C(C[C@H](O)C(=O)C4(C)C)[C@]3(C)C(=O)C[C@]12C (stereo partly specified) | > 35 µM (inactive) |
| CCOC(=O)CCCNS(=O)(=O)c1c(C)ccc2nsnc12 | > 35 µM (inactive) |
| COc1cc(OC)cc(C(=O)N[C@H](C(=O)OCC(=O)Nc2ccc(C)cc2C)C(C)C)c1 | > 35 µM (inactive) |
| Cc1ccc(CS(=O)(=O)c2ncc(Cl)c(C(=O)Nc3ccc(OC(F)F)cc3)n2)cc1 | > 35 µM (inactive) |
| COc1cc(-c2nnc(NC(=O)CCS(=O)(=O)c3ccc(F)cc3)o2)cc(OC)c1OC | > 35 µM (inactive) |
